Results published in US20240299448A1, “METHODS FOR PREVENTING AND TREATING CHRONIC PAIN” (priority 2023, published 2024).

Key:
Assay type in all cases: in vivo, mouse
[1] = system: CD-1 mice with plantar incision in the hind paw; test: Plantar incision postoperative pain, von Frey mechanical sensitivity
Experimental: CD-1 mice were housed in conventional shoebox cages with 3-4 mice per cage, in temperature-controlled environment (20±1° C.), on a 12:12 h light/dark cycle, with ad libitum access to filtered water and chow (Envigo Teklad 2920x, irradiated). All mice underwent plantar incision in the right hind paw. Mice were anesthetized with 5% isoflurane at 2 L/min into a sealed induction chamber then maintained with 2.5% isoflurane at 500 mL/min through a nose cone. A 5-mm longitudinal incision was created, the flexor digitorum brevis muscle was elevated, and then a longitudinal incision was made through it. Two skin sutures closed the wound, and Polysporin antibiotic was applied. The mice were subcutaneously injected with either dexamethasone (DEXA; 0.5 mg/kg/day) or saline (PBS) once per day from the day before surgery to day 6 after surgery. Also, mice were administered 100 ug/kg/day (p.o.) of beraprost sodium, a PTGIR agonist, or saline from day 5 to 8 after plantar incision surgery. Mechanical sensitivity tests were performed using von Frey filaments (using the up-down method of Dixon) before and after the surgery on days 1, 7, 9, 14, 21 and 35. Mice were individually acclimated for at least 1 hour in transparent Plexiglas enclosures (5 cm×8.5 cm by 6 cm) before withdrawal thresholds were measured.

[2] = system: mice with chronic constriction injury (CCI) of the sciatic nerve; test: Chronic constriction injury (CCI) neuropathic pain, von Frey mechanical paw-withdrawal threshold; conditions: drug daily Day 0 to Day 6, vs saline
Experimental: Mice: CD-1 male and female mice aged 6-12 weeks (ICR:Crl, Charles River, St. Constant, QC) were used in these experiments. All mice were housed in standard shoebox cages with 2-4 (same-sex) per cage in a light (14:10 h, lights on at 07:00 h) and temperature-controlled (20±1° C.) environment with ad libidum access to food (Harlan Teklad 8604) and tap water. Mice were acclimated to the vivarium for 7 days post-arrival and before testing. Each mouse was used in a single drug experiment. Equal numbers of male and female mice were included in each cohort. Drugs: Dexamethasone (PromoCell, Heidelberg, Germany) was administered via daily subcutaneous injections at a dosage of 0.5 mg/kg/day. […] Before and after all injuries, mechanical paw-withdrawal threshold was measured with von Frey filaments using the up-down staircase method of Dixon (Chaplan et al., 1994), as previously described (Mogil et al., 2006). […] To quantify the acute effects of drugs on mechanical thresholds during drug exposure (on Day 4-6 after CCI or CFA), the percentage of maximum possible allodynia was quantified as: % allodynia=[(baseline threshold−post-drug threshold)/baseline threshold]×100. […] To quantify the duration of the entire CCI- or CFA-induced allodynic episode, the day-by-day mechanical thresholds of each subject was considered. […]

[3] = system: mice with hind paw injection of complete Freund's adjuvant (CFA); test: CFA inflammatory pain, von Frey mechanical paw-withdrawal threshold; conditions: for allodynia during the administration period after CFA / duration of the overall allodynia episode produced by CFA: drug daily Day 0 to Day 6, diclofenac 25, morphine 5, gabapentin 100 mg/kg/day i.p., lidocaine 2% 20 μl s.c. hind paw, vs saline; for development of allodynia after CFA in dexamethasone-treated mice: hind paw injection on Day 3 and Day 5, ipsilateral to CFA, with dexamethasone; for duration of CFA allodynia in the absence of dexamethasone / CFA-induced mechanical allodynia in the absence of dexamethasone: hind paw injection on day 3 and day 5, no dexamethasone; for CFA-induced mechanical allodynia in the absence of dexamethasone: day 6 or any other time point, vs vehicle
Experimental: Mice: CD-1 male and female mice aged 6-12 weeks (ICR:Crl, Charles River, St. Constant, QC) were used in these experiments. All mice were housed in standard shoebox cages with 2-4 (same-sex) per cage in a light (14:10 h, lights on at 07:00 h) and temperature-controlled (20±1° C.) environment with ad libidum access to food (Harlan Teklad 8604) and tap water. Mice were acclimated to the vivarium for 7 days post-arrival and before testing. Each mouse was used in a single drug experiment. Equal numbers of male and female mice were included in each cohort.
Drugs: Dexamethasone (PromoCell, Heidelberg, Germany) was administered via daily subcutaneous injections at a dosage of 0.5 mg/kg/day. Diclofenac, morphine, and gabapentin were administered via intraperitoneal (i.p.) injection at a dose of 25 mg/kg/day, 5 mg/kg/day, and 100 mg/kg/day, respectively. Lidocaine was administered via subcutaneous (s.c.) injection of 20 μl of 2% lidocaine into the plantar hind paw. All drugs other than dexamethasone were purchased from Sigma-Aldrich (St. Louis, MO, USA). Anti-Ly6G (BioX Cell [InVivoPlus anti-mouse Ly6G/Ly6C (Gr-1)]) and its isotype control (BioX Cell [InVivoPlus rat IgG2b isotype control, anti-keyhole limpet hemocyanin]) were injected at a dose of 125 μg/day. S100A8 and S100A9 were injected (10 μl) into the plantar surface of the inflamed (see below) hind paw at a dose of 1 μg/day.
Neutrophils: Neutrophils were isolated using the EasySep Mouse Neutrophil Enrichment kit (Stem Cell Technologies, Vancouver, Canada) as per manufacturer's instructions. Briefly, blood was collected by cardiac puncture in a 21-gauge needle coated with 10% EDTA and pooled from 2-3 mice in PBS/2 mM EDTA. Red blood cells were lysed after incubation in 0.83% NH4Cl for 10 min at 4° C., with the reaction stopped by adding PBS+10% FBS. Cells were centrifuged at 300 g for 5 min and resuspended in PBS+10% FBS. Cells were then incubated with rat serum and enrichment cocktail for 15 min at 4° C. and centrifuged at 300 g for 10 min. Cells were then resuspended in biotin selection cocktail for 15 min at 4° C., followed by magnetic beads for an additional 10 min, and placed into the separation magnet for 3 min. Non adherent cells were removed, and adherent cells washed off of the walls of the tube and resuspended in PBS for injection. Cells (5×10^6, in 10 μl) were injected into the plantar surface of the inflamed hind paw (see below) of mice within 30 min of isolation.
In most experiments, complete Freud's adjuvant (50% CFA, 20 μl volume) was injected into the plantar surface of the mouse's left hind paw as a model of inflammatory pain.
Before and after all injuries, mechanical paw-withdrawal threshold was measured with von Frey filaments using the up-down staircase method of Dixon (Chaplan et al., 1994), as previously described (Mogil et al., 2006). In every experiment, a baseline threshold determination was made on Day 1. Drugs or cells were administered daily from Day 0 to Day 6 (dexamethasone, diclofenac, gabapentin, lidocaine), on Day 3 and Day 5 (S100A8, S100A9, and neutrophils), or every other day from Day 0 to Day 20 (anti-Ly6G). von Frey testing on Day 6 occurred 1 hour after the drug injection on that day. Testing continued until both vehicle and drug groups had returned to their baseline statistically (with the exception of CFA+diclofenac), even though not all individual mice had necessarily recovered. Thus, in an attempt to minimize the duration that mice remained in pain, the length of experiments were different depending on the assay used and the purpose of the experiment, from 40 days post drug to 120 days post-drug.
Data analysis: Time course data of von Frey thresholds are shown graphically. To quantify the acute effects of drugs on mechanical thresholds during drug exposure (on Day 4-6 after CCI or CFA), the percentage of maximum possible allodynia was quantified as: % allodynia=[(baseline threshold−post-drug threshold)/baseline threshold]×100. […]

[4] = DEXA 0.5 mg/kg/day s.c. plus beraprost sodium 100 ug/kg/day p.o. day 5 to 8

## CC#CCC(C)[C@H](O)/C=C/[C@@H]1[C@H]2c3cccc(CCCC(=O)O)c3O[C@H]2C[C@H]1O (mixture of isomers) [beraprost, beraprost sodium]
[1]; [4]
  long-lasting DEXA-induced hyperalgesia after plantar incision: prevented long-lasting DEXA-induced hyperalgesia
  time to recovery after plantar incision: recovered after one week
[1]; DEXA 0.5 mg/kg/day s.c., no beraprost
  duration of hypersensitivity after plantar incision: up to one month

## C[C@@H]1C[C@H]2[C@@H]3CCC4=CC(=O)C=C[C@]4(C)[C@@]3(F)[C@@H](O)C[C@]2(C)[C@@]1(O)C(=O)CO [dexamethasone, Dexamethasone]
[2]; day 6
  hind paw allodynia at the end of the treatment period after CCI: no effect

## O=C(O)Cc1ccccc1Nc1c(Cl)cccc1Cl [diclofenac, Diclofenac]
[2]
  recovery to baseline / duration of CCI-induced allodynia: prolong the duration
[3]
  allodynia during the administration period after CFA: reduced allodynia
  duration of the overall allodynia episode produced by CFA: significantly prolonged the duration

## NCC1(CC(=O)O)CCCCC1 [gabapentin]
[3]
  allodynia during the administration period after CFA: reduced allodynia
  duration of the overall allodynia episode produced by CFA: without affecting the overall duration

## CCN(CC)CC(=O)Nc1c(C)cccc1C [lidocaine, Lidocaine]
[3]
  allodynia during the administration period after CFA: reduced allodynia
  duration of the overall allodynia episode produced by CFA: without affecting the overall duration

## CN1CC[C@]23c4c5ccc(O)c4O[C@H]2[C@@H](O)C=C[C@H]3[C@H]1C5 [morphine]
[3]
  allodynia during the administration period after CFA: reduced allodynia
  duration of the overall allodynia episode produced by CFA: without affecting the overall duration

B1: S100A8: neutrophil-released alarmin protein, injected into the hind paw at 1 μg/day (protein, UniProt P27005 2-89, looked up)
Protein S100-A8: PSELEKALSNLIDVYHNYSNIQGNHHALYKNDFKKMVTTECPQFVQNINIENLFRELDINSDNAINFEEFLAMVIKVGVASHKDSHKE
[3]
  development of allodynia after CFA in dexamethasone-treated mice: prevented the development of allodynia entirely
  duration of CFA allodynia in the absence of dexamethasone: neither neutrophils nor S100A8/A9 significantly affected the duration
  CFA-induced mechanical allodynia in the absence of dexamethasone: No effect

B2: S100A9: neutrophil-released alarmin protein, injected into the hind paw at 1 μg/day (protein, UniProt P31725 2-113, looked up)
Protein S100-A9: ANKAPSQMERSITTIIDTFHQYSRKEGHPDTLSKKEFRQMVEAQLATFMKKEKRNEALINDIMEDLDTNQDNQLSFEECMMLMAKLIFACHEKLHENNPRGHGHSHGKGCGK
[3]
  development of allodynia after CFA in dexamethasone-treated mice: prevented the development of allodynia entirely
  duration of CFA allodynia in the absence of dexamethasone: neither neutrophils nor S100A8/A9 significantly affected the duration
  CFA-induced mechanical allodynia in the absence of dexamethasone: No effect
